Data as given in patent US20240226127A1, “NUCLEOSIDE COMPOUND AND APPLICATION THEREOF IN THE TREATMENT OF FELINE INFECTIOUS PERITONITIS” (VIGONVITA LIFE SCIENCES CO., LTD., priority 2021, published 2024).
Values after ≈ are worked out from the molar mass of the structure shown.

What was measured:
[1] = test system: feline infectious peritonitis; assay: Pharmacodynamic experiment on feline infectious peritonitis (subcutaneous aqueous injection); type: in vivo; conditions: cats with feline infectious peritonitis, 2 mg/kg once a day subcutaneous aqueous injection, two weeks; for weight changes of cats before and after treatment: FIG. 1; for number of erythrocytes: FIG. 2; for ratio of Albumin to Globulin (A/G): FIG. 3
Experimental: 15 mg of compounds 1, 32, and 85 was dissolved separately in 5 mL of solution (water:propylene glycol:PEG=2:1:1) to prepare an injection solution for injection administration. The injection can be stored at room temperature. Use a 2 mL disposable veterinary syringe to draw the corresponding volume of the injection solution and expel air upwards. When injecting, choose a site with soft skin, loose subcutaneous tissue, and fewer blood vessels, such as the neck or medial thigh, for subcutaneous injection. The dosage of administration is 2 mg/kg body weight once a day. Blood samples are collected every three days and blood routine and corresponding biochemical indicators are measured. The end of the experiment is marked when the cat's biochemical indicators return to normal. The indicator data measured in the experiment includes body weight data, erythrocyte data, and data of the ratio of Albumin to Globulin. The experimental subjects for each compound are 15 cats diagnosed with feline infectious peritonitis.

[2] = test system: Feline Infectious Peritonitis Virus (FIPV); assay: In vitro anti feline infectious peritonitis virus (FIPV) activity in CRFK cells; type: cell-based; conditions: Alphacoronavirus 1, 0.1 MOI FIPV, 72 hours, CellTier-Glo cell viability
Experimental: Well-growing CRFK cells were inoculated on a 96-well plate. When the cells grow to 80%-90% confluence, 0.1 MOI Feline Infectious Peritonitis Virus (FIPV) and different concentrations of test compounds (0.3125 μM, 0.625 μM, 1.25 μM, 2.5 μM, 5 μM, 10 μM, 20 μM, and 40 μM) were added to each well. Simultaneously set up cell control and virus control with 1% DMSO each well. After being incubated at 37° C. for 72 hours, the cells were treated with CellTier-Glo luminescence assay cell viability detection reagents (Promega, Madison, WI, USA), and the half effective concentration (EC50) of the compounds against virus inhibition was calculated by GraphPad prism 7 software.

[3] = Solubility test in water (HPLC, external standard method); type: physicochemical; conditions: thermodynamic from solid
Experimental: Experimental method: Refer to the high-performance liquid chromatography method (Chinese Pharmacopoeia, 2020 Edition, Part Four, General Rule 0512) for determination.
a. Take approximately 1-2 mg of the compound, and place it in a 10 ml volumetric flask. Add lml of water and vigorously shake for 30 seconds every 5 minutes. Observe for 30 minutes. The sample is not completely dissolved. Filter through a 0.45 μm filter membrane, and take the remaining filtrate as the test solution.
b. Take approximately amount of the reference substance, add solvent (DMSO: methanol=10:90) to dissolve and dilute it quantitatively to produce a solution containing 0.1 mg per 1 ml as the reference substance solution.
c. Accurately measure 20 μl of each of the reference substance and test solution, and inject them into the liquid chromatograph respectively. Calculate the peak area according to the external standard method. Calculation formula: […]
In the formula: AT: the main peak area of the test solution; AR: the main peak area of reference substance solution; WR: weighing amount of reference substance solution, mg; VR: dilution volume of reference substance solution, ml; S: content of reference substance solution, %.
d. Chromatographic conditions: Using octadecylsilane bonded silica gel as the filling agent (Welch Ultimate XB-C18, 4.6×150 mm, suitable for 5 um columns). […]

solubility at 30 min [3] [µg/mL]	SMILES	weight changes of cats before and after treatment [1]	number of erythrocytes [1]	ratio of Albumin to Globulin (A/G) [1]	EC50 [2] [nM]
–	CC(=O)OC[C@H]1O[C@@](C#N)(c2ccc3c(N)ncnn23)[C@H](O)[C@@H]1O [Compound 1]	significantly raised	significantly increased	reached normal values	–
–	CC(C)C(=O)OC[C@H]1O[C@@](C#N)(c2ccc3c(N)ncnn23)[C@H](O)[C@@H]1O [Compound 4]	–	–	–	650
–	N#C[C@@]1(c2ccc3c(N)ncnn23)O[C@H](COC(=O)CC(F)(F)F)[C@@H](O)[C@H]1O [Compound 14]	–	–	–	2950
–	N#C[C@@]1(c2ccc3c(N)ncnn23)O[C@H](COC(=O)C2CCC2)[C@@H](O)[C@H]1O [Compound 16]	–	–	–	810
–	N#C[C@@]1(c2ccc3c(N)ncnn23)O[C@H](COC(=O)C2CCCCC2)[C@@H](O)[C@H]1O [Compound 18]	–	–	–	350
–	N#C[C@@]1(c2ccc3c(N)ncnn23)O[C@H](COC(=O)CO)[C@@H](O)[C@H]1O [Compound 32]	significantly raised	significantly increased	reached normal values	6210
–	CN(C)CCN(C)C(=O)OC[C@H]1O[C@@](C#N)(c2ccc3c(N)ncnn23)[C@H](O)[C@@H]1O [Compound 85]	significantly raised	significantly increased	reached normal values	–
50 (≈ 172 µM)	N#C[C@@]1(c2ccc3c(N)ncnn23)O[C@H](CO)[C@@H](O)[C@H]1O [GS-441524]	–	–	–	–
